Data as given in patent US9259476B2, “Monophosphorylated lipid A derivatives” (WAYNE STATE UNIVERSITY, priority 2009, dated 2016).

How the values were obtained:
GM3NPhAc = test: ELISA analysis of GM3NPhAc-specific immune responses in immunized mice; format: in vivo
Description: FIG. 1 relates to the ELISA analysis of GM3NPhAc-specific immune responses in mice. For ELISA assays, GM3NPhAc-HSA was used as the capture antigen. Goat anti-mouse kappa antibodies were used to detect antibodies bond to the capture antigen. Titers are determined by linear regression analysis and defined as the highest dilution yielding an optical density of 0.2. (a) GM3NPhAc-specific total antibody contents in day −1, 27 and 38 mice sera. Mice were immunized with 1N containing 15 μg of GM3NPhAc. Each line represents the antibody level in serum pooled from a group of five mice. (b) Comparison of GM3NPhAc-specific total antibody titers in day 38 mice sera. Mice were immunized with 1N containing 15, 6 or 3 μg of GM3NPhAc. (c) Comparison of immunological results of conjugates 1, 2 and T-1. 1N: conjugate 1 alone; 1A: conjugate 1+an external adjuvant; 2N: conjugate 2 alone; 2A: conjugate 2+an external adjuvant; T-1N: conjugate T-1 alone. Each dot represents the GM3NPhAc-specific immune response of individual mouse and the black lines represent the average antibody level of a group of five mice.
FIG. 2 relates to the titer analysis of different isotypes of GM3NPhAc-specific antibodies induced by 1N (left) and T-1N (right). […] Titers are determined by linear regression analysis and defined as the highest dilution yielding an optical density of 0.2. […]

SKMEL-28 cells = test: In vitro glycoengineered expression of GM3NPhAc on cell surface, flow cytometry with mAb 2H3; format: cell-based, human
Description: (§1) FIG. 3 depicts histograms of the glycoengineering of B16F0 cells (a), 3T3 A31 cells (b) and SKMEL-28 cells (c) using ManNPhAc which induces expression of GM3NPhAc on the cell surface. Cells were cultured with 0, 0.01, 0.02 and 0.04 mM of ManNPhAc, stained with mAb 2H3, labeled with FITC-labeled goat anti-mouse kappa antibody, and analyzed by flow cytometry. Data are presented as raw histograms derived from 20,000 events.
(§2) B16F0, 3T3 A31 and SKMEL-28 cells were incubated with 0.01, 0.02 and 0.04 mM of ManNPhAc or NeuNPhAc, harvested at different time, washed with FACS buffer (phosphate-buffered saline (PBS) containing 1% bovine serum albumin), and incubated on ice for 15 minutes with 100 μL of normal mouse serum (NMS) diluted 1:100 in FACS buffer. Cells were washed 3 times with FACS buffer, and incubated for 30 minutes on ice with 100 μL of anti-GM3NPhAc mAb 2H3 (cell culture supernatant) diluted 1:10 in FACS buffer. Cells were washed again (3 times) and incubated for 30 minutes on ice with 1 μg of FITC-conjugated goat anti-mouse kappa antibody diluted in FACS buffer (100 μL). After washing 3 times with FACS buffer, the expression of GM3NPhAc on cell surfaces was evaluated on a Becton Dickenson FACScan flow cytometer. Data are presented as raw histograms derived from 20000 events.

3T3 A31 cells = test: as above; format: cell-based, murine
Description: as §1
(§3) FIG. 4 depicts histograms of the glycoengineering of B16F0 (a) and 3T3 A31 (b) using NeuNPhAc induces expression of GM3NPhAc on the cell surface. Cells were cultured with 0, 0.01, 0.02 and 0.04 mM of NeuNPhAc, stained with mAb 2H3, labeled with FITC-labeled goat anti-mouse kappa antibody, and analyzed by flow cytometry. Data are presented as raw histograms derived from 10,000 events.
as §2

B16F0 cells = test: as above; format: cell-based, murine
Description: as §1, §3, §2

CCC(=O)OC1C(NC(=O)C[C@@H](CC)OC(=O)CC)[C@H](OCCNC(=O)CCC(=O)NCc2cn(CCOC3OC(CO)[C@@H](O[C@@H]4OC(CO)[C@H](O)C(O[C@]5(C(=O)O)CC(O)[C@@H](NC(=O)Cc6ccccc6)C([C@H](O)[C@H](O)CO)O5)C4O)C(O)C3O)nn2)OC(CO[C@@H]2OC(CO)[C@@H](OP(=O)(O)O)C(OC(=O)CC)C2NC(=O)C[C@@H](CC)OC(=O)CC)[C@H]1O (stereo partly drawn) [Compound T-1]
Isotypes of GM3NPhAc-specific antibodies (IgM, IgG1, IgG2a, IgG3) (GM3NPhAc; day 38 mice sera, conjugate alone): not only GM3NPhAc-specific IgM and IgG1 antibodies, but also much higher titers of IgG3 antibody
GM3NPhAc-specific total antibody immune response (GM3NPhAc; liposome of conjugate alone, no external adjuvant (groups 1N, 2N, T-1N), 15 μg of GM3NPhAc, s.c. day 0, 14, 21, 28): comparable to that induced by 1

[2H]C(C(=O)N[C@@H]1C(O)O[C@H](CO)[C@@H](O)[C@@H]1O)c1ccccc1 (stereo partly drawn) [ManNPhAc]
Cells showing significant GM3NPhAc labelling above the control group (SKMEL-28 cells; 0.01 mM, 96 hours): 100%
Expression of GM3NPhAc on cell surface (SKMEL-28 cells; 0.02 mM, 96 hours): further increased
Expression of GM3NPhAc on cell surface (SKMEL-28 cells; 0.04 mM, 96 hours): further increased
Concentration at which a plateau level of GM3NPhAc expression was reached (SKMEL-28 cells; data not shown): ≥ 0.04 mM
Cells showing labelling of GM3NPhAc (3T3 A31 cells; 0.01 mM): no 3T3 A31 cell showing labelling of GM3NPhAc
Labelling for GM3NPhAc compared to control group (3T3 A31 cells; 0.01 mM): no substantial labelling
Labelling for GM3NPhAc compared to control group (3T3 A31 cells; 0.02 mM): no substantial labelling
Labelling for GM3NPhAc compared to control group (3T3 A31 cells; 0.04 mM): started to show labelling
Cells showing labelling of GM3NPhAc (B16F0 cells; 0.01 mM): only partial B16F0 cell
Expression of GM3NPhAc on cell surface (B16F0 cells; 0.01 mM, 72 hours): significant expression of GM3NPhAc
Concentration dependence of GM3NPhAc expression (B16F0 cells; 0.01, 0.02, 0.04 mM, 72 hours): dependent on ManNPhAc concentrations

O=C(Cc1ccccc1)N[C@H]1[C@H]([C@H](O)[C@H](O)CO)OC(O)(C(=O)O)C[C@@H]1O (stereo partly drawn) [NeuNPhAc]
Utilization to express GM3NPhAc on cell surface (3T3 A31 cells; 0.01, 0.02, 0.04 mM): much more efficiently to express GM3NPhAc, even better than B16F0 cancer cells
Expression of GM3NPhAc on cell surface relative to ManNPhAc (B16F0 cells; 72 hours, same concentrations (0.01, 0.02, 0.04 mM)): more significant expression of GM3NPhAc than that incubated with ManNPhAc
